Results: US20070087988A1, “Hematopoietic progenitor kinase 1 for modulation of an immune response” (New York University, priority 2005, published 2007)

What was measured:
[1] = target: HA-tagged murine HPK1 point mutant S171A (UniProt P70218)
[2] = target: HA-tagged murine HPK1 point mutant R169K (UniProt P70218)
[3] = target: HA-tagged murine HPK1 point mutant R168K (UniProt P70218)
HPK1 = HPK1 immune complex in vitro kinase (IVK) assay, endogenous HPK1 from treated Jurkat cells; assay type: cell-based, human; conditions: for HPK1 kinase activity (IVK) after phosphatase inhibitor: Jurkat cells, 10 min at 37° C., 100 nM calyculin A, 10 nM okadaic acid, 2 μg/ml cyclosporine A, 10 nM pervanadate; for PGE2-induced HPK1 activity: Jurkat cells pretreated with 10 μM H-89, then PGE2

Compound: cAMP-dependent protein kinase A (PKA), endogenous in Jurkat T cells
- HPK1 kinase activity (IVK assay) in response to PGE2 stimulation [1]: mutation of serine 171 ablated the response of HPK1 to PGE2 stimulation signals
- HPK1 kinase activity (IVK assay) in response to PGE2 stimulation [2]: Arginine to lysine mutations at either residue 168 or 169 of HPK1 reduced the responsiveness to PGE2 stimulation by approximately 90%
- HPK1 kinase activity (IVK assay) in response to PGE2 stimulation [3]: Arginine to lysine mutations at either residue 168 or 169 of HPK1 reduced the responsiveness to PGE2 stimulation by approximately 90%

Compound: cholera toxin
- HPK1 kinase activity (IVK) after PKA activator (HPK1): robustly induced HPK1 kinase activity

Compound: pervanadate
- HPK1 kinase activity (IVK) after phosphatase inhibitor (HPK1): induced a response in HPK1 catalytic activity

Compound: COC[C@@H]([C@H](O)[C@H](O)C(=O)NCC[C@H](C)c1nc(/C=C/C[C@@H]2O[C@]3(C[C@@H](O)[C@@H]2C)O[C@H]([C@H](C[C@H](O)[C@H](C)[C@H](O)[C@H](C)/C=C(C)/C(C)=C/C=C/C(C)=C\C#N)OC)[C@H](OP(=O)(O)O)C3(C)C)co1)N(C)C [calyculin A]
- HPK1 kinase activity (IVK) after phosphatase inhibitor (HPK1): activated HPK1 kinase activity

Compound: O=S(=O)(NCCNC/C=C/c1ccc(Br)cc1)c1cccc2cnccc12 [H-89]
- PGE2-induced HPK1 activity (HPK1): blocked
- PGE2-induced HPK1 activity (HPK1; listed as H89): blocks PGE2-induced HPK1 activation

Compound: C=C1[C@@H](O)[C@@H]2O[C@]3(CC[C@H](/C=C/[C@@H](C)[C@@H]4CC(C)=C[C@@]5(O[C@H](C[C@@](C)(O)C(=O)O)CC[C@H]5O)O4)O3)CC[C@H]2O[C@@H]1[C@@H](O)C[C@H](C)[C@H]1O[C@@]2(CCCCO2)CC[C@H]1C [okadaic acid]
- HPK1 kinase activity (IVK) after phosphatase inhibitor (HPK1): activated HPK1 kinase activity
